Test results from ChEMBL document CHEMBL4814018, “Rationally designed TNF-α inhibitors: Identification of promising cytotoxic agents” (Bioorg Med Chem Lett, 2021).
The source made the active and inactive calls. The calls are words filed in the database; no cut-off is given here.

Assays:
MCF7 [1] = test: Growth inhibition of human MCF7 cells incubated for 48 hrs by sulforhodamine B assay; format: functional
OVCAR-5 [2] = test: Growth inhibition of human OVCAR-5 cells at 10 uM incubated for 48 hrs by sulforhodamine B assay relative to control; format: functional; details: read-out: GI
BV-2 [3] = test: Cytotoxicity against mouse BV2 cells incubated for 48 hrs by MTT assay; format: cell-based; details: BV-2, 48 h
UO-31 [4] = test: Growth inhibition of human UO-31 cells incubated for 48 hrs by sulforhodamine B assay; format: functional
T47D [5] = test: Growth inhibition of human T47D cells incubated for 48 hrs by sulforhodamine B assay; format: functional
T47D [6] = test: Growth inhibition of human T47D cells at 10 uM incubated for 48 hrs by sulforhodamine B assay relative to control; format: functional; details: read-out: GI
TK-10 [7] = test: Growth inhibition of human TK-10 cells at 10 uM incubated for 48 hrs by sulforhodamine B assay relative to control; format: functional; details: read-out: GI
SK-MEL-2 [8] = test: Growth inhibition of human SK-MEL-2 cells incubated for 48 hrs by sulforhodamine B assay; format: functional
SF-295 [9] = test: Growth inhibition of human SF-295 cells at 10 uM incubated for 48 hrs by sulforhodamine B assay relative to control; format: functional; details: read-out: GI
CAKI-1 [10] = test: Growth inhibition of human CAKI-1 cells incubated for 48 hrs by sulforhodamine B assay; format: functional
UACC-62 [11] = test: Growth inhibition of human UACC-62 cells at 10 uM incubated for 48 hrs by sulforhodamine B assay relative to control; format: functional; details: read-out: GI
RPMI-8226 [12] = test: Growth inhibition of human RPMI-8226 cells incubated for 48 hrs by sulforhodamine B assay; format: functional; details: dose 10 µM
UACC-62 [13] = test: Growth inhibition of human UACC-62 cells incubated for 48 hrs by sulforhodamine B assay; format: functional
TK-10 [14] = test: Growth inhibition of human TK-10 cells incubated for 48 hrs by sulforhodamine B assay; format: functional
U-251 [15] = test: Growth inhibition of human U-251 cells at 10 uM incubated for 48 hrs by sulforhodamine B assay relative to control; format: functional; details: read-out: GI
OVCAR-3 [16] = test: Growth inhibition of human OVCAR-3 cells incubated for 48 hrs by sulforhodamine B assay; format: functional
UACC-257 [17] = test: Growth inhibition of human UACC-257 cells incubated for 48 hrs by sulforhodamine B assay; format: functional
NCI-H226 [18] = test: Growth inhibition of human NCI-H226 cells incubated for 48 hrs by sulforhodamine B assay; format: functional
OVCAR-5 [19] = test: Growth inhibition of human OVCAR-5 cells incubated for 48 hrs by sulforhodamine B assay; format: functional
SF-295 [20] = test: Growth inhibition of human SF-295 cells incubated for 48 hrs by sulforhodamine B assay; format: functional
OVCAR-3 [21] = test: Growth inhibition of human OVCAR-3 cells at 10 uM incubated for 48 hrs by sulforhodamine B assay relative to control; format: functional; details: read-out: GI
HOP-92 [22] = test: Growth inhibition of human HOP-92 cells at 10 uM incubated for 48 hrs by sulforhodamine B assay relative to control; format: functional; details: read-out: GI
K562 [23] = test: Growth inhibition of human K562 cells at 10 uM incubated for 48 hrs by sulforhodamine B assay relative to control; format: functional; details: read-out: GI
RPMI-8226 [24] = test: Growth inhibition of human RPMI8226 cells at 10 uM incubated for 48 hrs by sulforhodamine B assay relative to control; format: functional; details: read-out: GI
MDA-MB-468 [25] = test: Growth inhibition of human MDA-MB-468 cells incubated for 48 hrs by sulforhodamine B assay; format: functional
HOP-62 [26] = test: Growth inhibition of human HOP-62 cells at 10 uM incubated for 48 hrs by sulforhodamine B assay relative to control; format: functional; details: read-out: GI
OVCAR-4 [27] = test: Growth inhibition of human OVCAR-4 cells incubated for 48 hrs by sulforhodamine B assay; format: functional
NCI-H460 [28] = test: Growth inhibition of human NCI-H460 cells incubated for 48 hrs by sulforhodamine B assay; format: functional
HCT-116 [29] = test: Growth inhibition of human HCT-116 cells incubated for 48 hrs by sulforhodamine B assay; format: functional
SW-620 [30] = test: Growth inhibition of human SW-620 cells incubated for 48 hrs by sulforhodamine B assay; format: functional
K562 [31] = test: Growth inhibition of human K562 cells incubated for 48 hrs by sulforhodamine B assay; format: functional
BV-2 [32] = test: Antiinflammatory activity against mouse BV2 cells assessed as decrease in LPS-induced NO production at 1 to 5 uM pretreated with compound followed by LPS stimulation incubated for 4 to 48 hrs by enzyme immunoassay; format: functional, cell-based; details: dose 1-5 µM, time 4-48 hrs
MDA-MB-231 [33] = test: Growth inhibition of human MDA-MB-231 cells at 10 uM incubated for 48 hrs by sulforhodamine B assay relative to control; format: functional; details: read-out: GI
UO-31 [34] = test: Growth inhibition of human UO-31 cells at 10 uM incubated for 48 hrs by sulforhodamine B assay relative to control; format: functional; details: read-out: GI
HCT-116 [35] = test: Growth inhibition of human HCT-116 cells at 10 uM incubated for 48 hrs by sulforhodamine B assay relative to control; format: functional; details: read-out: GI
MDA-MB-468 [36] = test: Growth inhibition of human MDA-MB-468 cells at 10 uM incubated for 48 hrs by sulforhodamine B assay relative to control; format: functional; details: read-out: GI
IGROV-1 [37] = test: Growth inhibition of human IGROV-1 cells at 10 uM incubated for 48 hrs by sulforhodamine B assay relative to control; format: functional; details: read-out: GI
U-251 [38] = test: Growth inhibition of human U-251 cells incubated for 48 hrs by sulforhodamine B assay; format: functional
BV-2 [39] = test: Antiinflammatory activity against mouse BV2 cells assessed as reduction in LPS-induced IL6 production at 1 uM by enzyme immunoassay; format: functional, cell-based
MDA-MB-231 [40] = test: Growth inhibition of human MDA-MB-231 cells incubated for 48 hrs by sulforhodamine B assay; format: functional
OVCAR-4 [41] = test: Growth inhibition of human OVCAR-4 cells at 10 uM incubated for 48 hrs by sulforhodamine B assay relative to control; format: functional; details: read-out: GI
NCI-H460 [42] = test: Growth inhibition of human NCI-H460 cells at 10 uM incubated for 48 hrs by sulforhodamine B assay relative to control; format: functional; details: read-out: GI
IGROV-1 [43] = test: Growth inhibition of human IGROV-1 cells incubated for 48 hrs by sulforhodamine B assay; format: functional
SW-620 [44] = test: Growth inhibition of human SW-620 cells at 10 uM incubated for 48 hrs by sulforhodamine B assay relative to control; format: functional; details: read-out: GI
SR [45] = test: Growth inhibition of human SR cells at 10 uM incubated for 48 hrs by sulforhodamine B assay relative to control; format: functional; details: read-out: GI
UACC-257 [46] = test: Growth inhibition of human UACC-257 cells at 10 uM incubated for 48 hrs by sulforhodamine B assay relative to control; format: functional; details: read-out: GI
[47] = Therapeutic index, ratio of LC50 for human Panel NCI-60 (60 carcinoma cell lines) to GI50 for human Panel NCI-60 (60 carcinoma cell lines); format: functional
HOP-62 [48] = test: Growth inhibition of human HOP-62 cells incubated for 48 hrs by sulforhodamine B assay; format: functional
SK-MEL-2 [49] = test: Growth inhibition of human SK-MEL-2 cells at 10 uM incubated for 48 hrs by sulforhodamine B assay relative to control; format: functional; details: read-out: GI
NCI-H226 [50] = test: Growth inhibition of human NCI-H226 cells at 10 uM incubated for 48 hrs by sulforhodamine B assay relative to control; format: functional; details: read-out: GI
MCF7 [51] = test: Growth inhibition of human MCF7 cells at 10 uM incubated for 48 hrs by sulforhodamine B assay relative to control; format: functional; details: read-out: GI
CAKI-1 [52] = test: Growth inhibition of human CAKI-1 cells at 10 uM incubated for 48 hrs by sulforhodamine B assay relative to control; format: functional; details: read-out: GI
HOP-92 [53] = test: Growth inhibition of human HOP-92 cells incubated for 48 hrs by sulforhodamine B assay; format: functional
BV-2 [54] = test: Antiinflammatory activity against mouse BV2 cells assessed as inhibition of LPS-induced TNFalpha production at 1 uM by enzyme immunoassay; format: functional
SR [55] = test: Growth inhibition of human SR cells incubated for 48 hrs by sulforhodamine B assay; format: functional
[56] = test system: Panel NCI-60 (60 carcinoma cell lines); test: Growth inhibition of human Panel NCI-60 (60 carcinoma cell lines) incubated for 48 hrs by sulforhodamine B assay; format: functional
[57] = read-out: LC50 (the source's name)

O=C1COCCN1c1ccc(NCc2cn(Cc3ccc(F)cc3)c3ccccc23)cc1
GI50 (MCF7 [1]): 110 nM | inhibition of growth at 10 µM (OVCAR-5 [2]): 100% | IC50 (BV-2 [3]): > 10000 nM | GI50 (UO-31 [4]): 2750 nM | GI50 (T47D [5]): 70 nM | inhibition of growth at 10 µM (T47D [6]): 99% | inhibition of growth at 10 µM (TK-10 [7]): 100% | GI50 (SK-MEL-2 [8]): 1200 nM | inhibition of growth at 10 µM (SF-295 [9]): 90% | GI50 (CAKI-1 [10]): 20 nM | CC50 (CAKI-1 [10]; [57]): > 100000 nM | inhibition of growth at 10 µM (UACC-62 [11]): 100% | GI50 (RPMI-8226 [12]): 540 nM | GI50 (UACC-62 [13]): 40 nM | CC50 (UACC-62 [13]; [57]): 800 nM | GI50 (TK-10 [14]): 40 nM | CC50 (TK-10 [14]; [57]): > 100000 nM | inhibition of growth at 10 µM (U-251 [15]): 80% | GI50 (OVCAR-3 [16]): 280 nM | GI50 (UACC-257 [17]): 200 nM | GI50 (NCI-H226 [18]): 40 nM | CC50 (NCI-H226 [18]; [57]): 1100 nM | GI50 (OVCAR-5 [19]): 40 nM | CC50 (OVCAR-5 [19]; [57]): > 100000 nM | GI50 (SF-295 [20]): 1090 nM | inhibition of growth at 10 µM (OVCAR-3 [21]): 100% | inhibition of growth at 10 µM (HOP-92 [22]): 96% | inhibition of growth at 10 µM (K562 [23]): 89% | inhibition of growth at 10 µM (RPMI-8226 [24]): 98% | GI50 (MDA-MB-468 [25]): 20 nM | CC50 (MDA-MB-468 [25]; [57]): 500 nM | inhibition of growth at 10 µM (HOP-62 [26]): 77% | GI50 (OVCAR-4 [27]): 150 nM | GI50 (NCI-H460 [28]): 120 nM | GI50 (HCT-116 [29]): 50 nM | CC50 (HCT-116 [29]; [57]): > 100000 nM | GI50 (SW-620 [30]): 480 nM | GI50 (K562 [31]): 1510 nM | Activity (BV-2 [32]): Active | inhibition of growth at 10 µM (MDA-MB-231 [33]): 72% | inhibition of growth at 10 µM (UO-31 [34]): 96% | inhibition of growth at 10 µM (HCT-116 [35]): 96% | inhibition of growth at 10 µM (MDA-MB-468 [36]): 100% | inhibition of growth at 10 µM (IGROV-1 [37]): 100% | GI50 (U-251 [38]): 1410 nM | Activity (BV-2 [39]): Active | GI50 (MDA-MB-231 [40]): 3800 nM | inhibition of growth at 10 µM (OVCAR-4 [41]): 100% | inhibition of growth at 10 µM (NCI-H460 [42]): 93% | GI50 (IGROV-1 [43]): 30 nM | CC50 (IGROV-1 [43]; [57]): > 100000 nM | inhibition of growth at 10 µM (SW-620 [44]): 87% | inhibition of growth at 10 µM (SR [45]): 68% | inhibition of growth at 10 µM (UACC-257 [46]): 100% | TI [47]: 54 | GI50 (HOP-62 [48]): 1470 nM | inhibition of growth at 10 µM (SK-MEL-2 [49]): 100% | inhibition of growth at 10 µM (NCI-H226 [50]): 100% | inhibition of growth at 10 µM (MCF7 [51]): 100% | inhibition of growth at 10 µM (CAKI-1 [52]): 100% | GI50 (HOP-92 [53]): 1540 nM | Activity (BV-2 [54]): Active | GI50 (SR [55]): 4500 nM | GI50 [56]: 1310 nM | TGI [56]: 15100 nM | CC50 [56, 57]: 70800 nM

COc1cccc2c1C(=O)c1c(O)c3c(c(O)c1C2=O)C[C@@](O)(C(=O)CO)C[C@@H]3O[C@H]1C[C@H](N)[C@H](O)[C@H](C)O1 [DOXORUBICIN]
TI [47]: 134

O=C1COCCN1c1ccc(N2C(=O)C(Cl)C2c2cn(Cc3ccccc3)c3ccccc23)cc1 (stereo not drawn)
IC50 (BV-2 [3]): > 10000 nM
